Source: US5359135A, “Triasulfurone compounds” (priority 1990, dated 1994)

Tests used:
Format in all cases: binding, mouse (Balb/c)
Settings in all cases: for Cross-reactivity: (triasulfurone conc. for 50% inhibition/analog conc. for 50% inhibition) × 100
MAb 4134-40-1 = assay: competitive ELISA, triasulfurone and analogs with MAb 4134-40-1 (Table 1)
Excerpt: (§1) As defined within the context of this invention, the percentage of cross-reactivity is represented by the following equation: [triasulfurone concentration for 50% inhibition (I50)/concentration of the triasulfurone analogs for 50% inhibition (I50)]×100.
(§2) The I50 value can be determined, for example, by means of a competitive ELISA assay (see Example 8). In that case the I50 value corresponds, for example, to the antigen concentration that leads to a 50% inhibition of the binding of the antibody to the carrier-bound antigen.
(§3) The detection of triasulfurone is effected by means of a two-step competitive ELISA test.
(§4) BSA-conjugated hapten, prepared in accordance with Example 1.3.1 or 1.3.2, in a 50mM sodium carbonate buffer (pH 9.6) (200 ng of BSA-conjugated hapten/100 μl of sodium carbonate buffer) is first of all adsorbed on microtitre plates (for example Dynatech, type M 129A) and incubated overnight at a temperature of 4° C. The plates are then washed five times with PBS buffer enriched with 0.1% (v/v) polysorbate 20 (Tween 20) (PBS Tween).
(§5) The remaining free binding sites of the solid carder material are then blocked by the addition of PBS-BSA in the form of a 1% (w/v) solution. After incubation for two hours at 22° C. the plates are washed again with PBS Tween (0.1%).
(§6) 50 μl of the supernatant of the previously cloned hybridoma cells (in a dilution of 1:2000 or 1:4000) or 50 μl of the previously purified monoclonal antibodies (40-120 ng/ml) are incubated a) with 950 μl of a standard solution containing an increasing amount of triasulfurone or of triasulfurone analogs, b) with triasulfurone-containing water samples or c) with triasulfurone-containing soil extracts. [All dilutions are carried out in PBS Tween (0.1%)].
(§7) After an incubation period of 1 hour at room temperature (22° C.), 200 μl of the antigen/antibody mixture are added to each well in the microtitre plate and the whole batch is incubated for a further one hour. The wells are then washed five times with PBS Tween (0.1%) and charged with 100 μl/well of goat anti-mouse IgG antibody that is conjugated to alkaline phosphatase (dilution 1:1500), and incubated for a period of 1.5 hours.
(§8) After washing again, 150 μl/well of the substrate p-nitrophenyl phosphate dissolved in 1 mg/ml of diethanolamine buffer ([…], pH 9.8, enriched with 0.5 mM MgCl2 ×6H2 O) are added to the wells.
(§9) The intensity of the colour reaction that has occurred is determined at a wavelength of 405 nm. […] All the samples are determined in triplicate.
(§10) In order to determine the amount of triasulfurone present in a sample, first of all a calibration curve is produced (FIG. 1), B/Bo×100 being plotted against the concentration of inhibitor. (Bo represents the absorption capacity measured without the addition of a triasulfurone inhibitor to the antibody, and B is the absorption capacity when triasulfurone inhibitors at various concentrations are added). The I50 value indicates the concentration of the antigen at which the binding of antibody to the solid phase is inhibited by 50%. The I50 value is determined using an ENZFITTER (Leatherbarrow, Elsevier-Biosoft) curve-calculation program based on a four-parameter logistical curve (Raab GM, 1983) and specially adapted to the prevailing conditions. The quantitative determination of triasulfurone in soil or water samples within the context of ELISA is also carried out using the ENZFITTER program, the adaptation of the curve being based on standards that run on any microtitre plate.

MAb 4147-19-4 = assay: competitive ELISA, triasulfurone and analogs with MAb 4147-19-4 (Table 1)
Excerpt: as §1, §2, §3, §4, §5, §6, §7, §8, §9, §10

MAb 4149-1-1 = assay: competitive ELISA, triasulfurone and analogs with MAb 4149-1-1 (Table 1)
Excerpt: as §1, §2, §3, §4, §5, §6, §7, §8, §9, §10

Compound | I50 (inhibitor concentration that reduces the ELISA signal by 50% in comparison to the control) (MAb 4134-40-1) | Cross-reactivity (MAb 4134-40-1) | I50 (inhibitor concentration that reduces the ELISA signal by 50% in comparison to the control) (MAb 4147-19-4) | Cross-reactivity (MAb 4147-19-4) | I50 (inhibitor concentration that reduces the ELISA signal by 50% in comparison to the control) (MAb 4149-1-1) | Cross-reactivity (MAb 4149-1-1)
NS(=O)(=O)c1ccccc1OCCCl [C] | > 1000 ng/mL | < 0.7% | > 1000 ng/mL | < 0.01% | 1000 ng/mL | < 0.01%
CCS(=O)(=O)c1cccnc1S(=O)(=O)NC(=O)Nc1nc(OC)cc(OC)n1 [Q] | > 1000 ng/mL | < 0.7% | > 1000 ng/mL | < 0.01% | > 1000 ng/mL | < 0.01%
COC(=O)c1ccccc1S(=O)(=O)NC(=O)Nc1nc(C)cc(C)n1 [J, sulfometurone-methyl] | > 1000 ng/mL | < 0.7% | > 1000 ng/mL | < 0.01% | > 1000 ng/mL | < 0.01%
CCN(CC)C(=O)NS(=O)(=O)c1ccccc1OCCCl [T] | 0.9 ng/mL | 800.0% | 17.6 ng/mL | 0.5% | 0.01 ng/mL | 500.00%
NS(=O)(=O)c1ccccc1OCCO [D] | > 1000 ng/mL | < 0.7% | > 1000 ng/mL | < 0.01% | > 1000 ng/mL | < 0.01%
COc1nc(C)nc(NC(=O)NS(=O)(=O)c2ccc(O)cc2OCCCl)n1 [B] | > 1000 ng/mL | < 0.7% | 85 ng/mL | 0.1% | 0.04 ng/mL | 125.0%
COc1nc(C)nc(NC(=O)NS(=O)(=O)c2ccccc2Cl)n1 [M, chlorosulfurone] | > 1000 ng/mL | < 0.7% | 14.3 ng/mL | 0.6% | 420 ng/mL | 0.01%
COc1cc(OC)nc(NC(=O)NS(=O)(=O)c2ncccc2C(=O)N(C)C)n1 [P, nicosulfurone-methyl] | > 1000 ng/mL | < 0.7% | > 1000 ng/mL | < 0.01% | > 1000 ng/mL | < 0.01%
COC(=O)c1ccccc1CS(=O)(=O)NC(=O)Nc1nc(OC)cc(OC)n1 [N, bensulfurone-methyl] | > 1000 ng/mL | < 0.7% | > 1000 ng/mL | < 0.01% | > 1000 ng/mL | < 0.01%
NS(=O)(=O)c1cc(O)ccc1OCCCl [E] | > 1000 ng/mL | < 0.7% | > 1000 ng/mL | < 0.01% | > 1000 ng/mL | < 0.01%
COc1nc(C)nc(NC(=O)NS(=O)(=O)c2cc(O)ccc2OCCCl)n1 [A] | 550 ng/mL | 1.3% | 21.4 ng/mL | 0.4% | 0.16 ng/mL | 31.3%
COC(=O)c1ccccc1S(=O)(=O)NC(=O)N(C)c1nc(C)nc(OC)n1 [K, tribenurone-methyl] | > 1000 ng/mL | < 0.7% | > 1000 ng/mL | < 0.01% | > 1000 ng/mL | < 0.01%
COc1nc(C)nc(NC(=O)NS(=O)(=O)c2ccccc2OCCCl)n1 [triasulfurone, 3-(6-methoxy-4-methyl-1,3,5-triazin-2-yl)-1-[2-(2-chloroethoxy)-phenylsulfonyl]-urea] | 7.2 ng/mL | 100.0% | 0.09 ng/mL | 100.0% | 0.05 ng/mL | 100.0%
COc1nc(C)nc(NC(=O)NS(=O)(=O)c2ccccc2SCCF)n1 [H] | 30 ng/mL | 24.0% | 0.13 ng/mL | 69.2% | 16.2 ng/mL | 0.3%
COc1nc(C)nc(NC(N)=O)n1 [F] | > 1000 ng/mL | < 0.7% | > 1000 ng/mL | < 0.01% | > 1000 ng/mL | < 0.01%
COC(=O)c1sccc1S(=O)(=O)NC(=O)Nc1nc(C)nc(OC)n1 [L, thiameturone-methyl] | > 1000 ng/mL | < 0.7% | 14.2 ng/mL | 0.6% | > 1000 ng/mL | < 0.01%
COC(=O)c1ccccc1S(=O)(=O)NC(=O)Nc1nc(OC(F)F)cc(OC(F)F)n1 [I, primisulfurone] | > 1000 ng/mL | < 0.7% | > 1000 ng/mL | < 0.01% | > 1000 ng/mL | < 0.01%
COC(=O)c1ccccc1S(=O)(=O)NC(=O)Nc1nc(C)nc(OC)n1 [O, methsulfurone-methyl] | > 1000 ng/mL | < 0.7% | 81.5 ng/mL | 0.1% | 600 ng/mL | < 0.01%
CCCOC(=O)NS(=O)(=O)c1ccccc1OCCCl [R] | 2.1 ng/mL | 342.9% | 1.9 ng/mL | 4.7% | 0.02 ng/mL | 250.00%
